Organism: Rattus norvegicus
Assay: DrugMatrix - Regimen: Daily Repeat
Assay type: toxicity, organism-based, Sprague-Dawley
Design: regimen Daily Repeat, gender Male, age 6-8 weeks
Conditions: in vivo, po, route oral GAVAGE; for ABSOLUTE BASOPHIL / ABSOLUTE EOSINOPHIL / ABSOLUTE LYMPHOCYTE / ABSOLUTE MONOCYTE / ABSOLUTE SEGMENTED NEUTROPHIL / BASOPHIL / EOSINOPHIL / ERYTHROCYTE COUNT / HEMATOCRIT / HEMOGLOBIN / LEUKOCYTE COUNT / LYMPHOCYTE / MEAN CORPUSCULAR HEMOGLOBIN / MEAN CORPUSCULAR HEMOGLOBIN CONCENTRATION / MEAN CORPUSCULAR VOLUME / MONOCYTE / NEUTROPHIL / NUCLEATED RED BLOOD CELLS / PLATELET COUNT: tissue Blood; for ALANINE AMINOTRANSFERASE / ALBUMIN / ALKALINE PHOSPHATASE / ASPARTATE AMINOTRANSFERASE / BLOOD UREA NITROGEN / CARBON DIOXIDE / CHLORIDE / CHOLESTEROL / CREATINE PHOSPHOKINASE / CREATININE / LACTATE DEHYDROGENASE / LIPASE / PHOSPHORUS / POTASSIUM / SODIUM / TOTAL BILIRUBIN / TOTAL PROTEIN / URIC ACID / GLUCOSE: tissue Plasma
[1] = 70 mg/kg, 72 h, dose level Low, time 3 day, vehicle 100 % WATER
[2] = 70 mg/kg, 120 h, dose level Low, time 5 day, vehicle 100 % WATER
[3] = 400 mg/kg, 72 h, dose level High, time 3 day, […]
[4] = 400 mg/kg, 120 h, dose level High, time 5 day, […]

## CN(C)CCCN1c2ccccc2CCc2ccc(Cl)cc21 [CLOMIPRAMINE]
[1]
  ABSOLUTE BASOPHIL: 0 CELLS/uL
  ABSOLUTE EOSINOPHIL: 0 CELLS/uL
  ABSOLUTE LYMPHOCYTE: 11511.33 CELLS/uL
  ABSOLUTE MONOCYTE: 50 CELLS/uL
  ABSOLUTE SEGMENTED NEUTROPHIL: 672 CELLS/uL
  BASOPHIL: 0%
  EOSINOPHIL: 0%
  ERYTHROCYTE COUNT: 5.82 x10E6/uL
  HEMATOCRIT: 36.17%
  HEMOGLOBIN: 14.27 G/DL
  LEUKOCYTE COUNT: 12.23 x10E3/uL
  LYMPHOCYTE: 94%
  MEAN CORPUSCULAR HEMOGLOBIN: 24.53 pg
  MEAN CORPUSCULAR HEMOGLOBIN CONCENTRATION: 39.47 G/DL
  MEAN CORPUSCULAR VOLUME: 62.17 fL
  MONOCYTE: 0.33%
  NEUTROPHIL: 5.67%
  NUCLEATED RED BLOOD CELLS: 0.33 /100WBC
  ALANINE AMINOTRANSFERASE: 52.33 u/L
  ALBUMIN: 4.17 G/DL
  ALKALINE PHOSPHATASE: 458.67 u/L
  ASPARTATE AMINOTRANSFERASE: 99 u/L
  BLOOD UREA NITROGEN: 15.67 mg/dL
  CARBON DIOXIDE: 24.67 mmol/L
  CHLORIDE: 101 MEQ/L
  CHOLESTEROL: 73 mg/dL
  CREATINE PHOSPHOKINASE: 853.67 u/L
  CREATININE: 0.22 mg/dL
  LACTATE DEHYDROGENASE: 317.67 u/L
  LIPASE: 9 u/L
  PHOSPHORUS: 13.47 mg/dL
  POTASSIUM: 6.22 MEQ/L
  SODIUM: 146.57 MEQ/L
  TOTAL BILIRUBIN: 0.27 mg/dL
  TOTAL PROTEIN: 6.07 G/DL
  URIC ACID: 1.93 mg/dL
[2]
  ABSOLUTE BASOPHIL: 0 CELLS/uL
  ABSOLUTE EOSINOPHIL: 39.67 CELLS/uL
  ABSOLUTE LYMPHOCYTE: 12212 CELLS/uL
  ABSOLUTE MONOCYTE: 206.67 CELLS/uL
  ABSOLUTE SEGMENTED NEUTROPHIL: 1075 CELLS/uL
  BASOPHIL: 0%
  EOSINOPHIL: 0.33%
  ERYTHROCYTE COUNT: 6.52 x10E6/uL
  HEMATOCRIT: 41.7%
  HEMOGLOBIN: 15.97 G/DL
  LEUKOCYTE COUNT: 13.53 x10E3/uL
  LYMPHOCYTE: 90.33%
  MEAN CORPUSCULAR HEMOGLOBIN: 24.53 pg
  MEAN CORPUSCULAR HEMOGLOBIN CONCENTRATION: 38.27 G/DL
  MEAN CORPUSCULAR VOLUME: 64.07 fL
  MONOCYTE: 1.33%
  NEUTROPHIL: 8%
  NUCLEATED RED BLOOD CELLS: 1 /100WBC
  ALANINE AMINOTRANSFERASE: 54 u/L
  ALBUMIN: 4.67 G/DL
  ALKALINE PHOSPHATASE: 417.67 u/L
  ASPARTATE AMINOTRANSFERASE: 75.33 u/L
  BLOOD UREA NITROGEN: 13.33 mg/dL
  CARBON DIOXIDE: 27.67 mmol/L
  CHLORIDE: 100.33 MEQ/L
  CHOLESTEROL: 74 mg/dL
  CREATINE PHOSPHOKINASE: 213 u/L
  CREATININE: 0.2 mg/dL
  LACTATE DEHYDROGENASE: 196.67 u/L
  LIPASE: 8.67 u/L
  PHOSPHORUS: 12.07 mg/dL
  POTASSIUM: 6.7 MEQ/L
  SODIUM: 146.33 MEQ/L
  TOTAL BILIRUBIN: 0.2 mg/dL
  TOTAL PROTEIN: 6.57 G/DL
  URIC ACID: 1.57 mg/dL

## COC(=O)[C@H](c1ccccc1Cl)N1CCc2sccc2C1 [CLOPIDOGREL]
[3]
  ABSOLUTE BASOPHIL: 0 CELLS/uL
  ABSOLUTE EOSINOPHIL: 86.67 CELLS/uL
  ABSOLUTE LYMPHOCYTE: 12550.67 CELLS/uL
  ABSOLUTE MONOCYTE: 229.67 CELLS/uL
  ABSOLUTE SEGMENTED NEUTROPHIL: 1366.33 CELLS/uL
  BASOPHIL: 0%
  EOSINOPHIL: 0.67%
  ERYTHROCYTE COUNT: 5.22 x10E6/uL
  HEMATOCRIT: 31.7%
  HEMOGLOBIN: 12.8 G/DL
  LEUKOCYTE COUNT: 14.23 x10E3/uL
  LYMPHOCYTE: 88%
  MEAN CORPUSCULAR HEMOGLOBIN: 24.5 pg
  MEAN CORPUSCULAR HEMOGLOBIN CONCENTRATION: 40.4 G/DL
  MEAN CORPUSCULAR VOLUME: 60.77 fL
  MONOCYTE: 1.67%
  NEUTROPHIL: 9.67%
  NUCLEATED RED BLOOD CELLS: 0 /100WBC
  PLATELET COUNT: 1169.33 x10E3/uL
  ALANINE AMINOTRANSFERASE: 98.67 u/L
  ALBUMIN: 3.97 G/DL
  ALKALINE PHOSPHATASE: 463 u/L
  ASPARTATE AMINOTRANSFERASE: 113 u/L
  BLOOD UREA NITROGEN: 13.67 mg/dL
  CARBON DIOXIDE: 27.67 mmol/L
  CHLORIDE: 102.67 MEQ/L
  CHOLESTEROL: 80 mg/dL
  CREATINE PHOSPHOKINASE: 460.67 u/L
  CREATININE: 0.21 mg/dL
  GLUCOSE: 145 mg/dL
  LACTATE DEHYDROGENASE: 361 u/L
  LIPASE: 14.33 u/L
  PHOSPHORUS: 10.53 mg/dL
  POTASSIUM: 6.16 MEQ/L
  SODIUM: 141.23 MEQ/L
  TOTAL BILIRUBIN: 0.23 mg/dL
  TOTAL PROTEIN: 5.47 G/DL
  URIC ACID: 1.13 mg/dL
[4]
  ABSOLUTE BASOPHIL: 0 CELLS/uL
  ABSOLUTE EOSINOPHIL: 131.33 CELLS/uL
  ABSOLUTE LYMPHOCYTE: 15650.33 CELLS/uL
  ABSOLUTE MONOCYTE: 297.33 CELLS/uL
  ABSOLUTE SEGMENTED NEUTROPHIL: 2887.67 CELLS/uL
  BASOPHIL: 0%
  EOSINOPHIL: 0.67%
  ERYTHROCYTE COUNT: 5.21 x10E6/uL
  HEMATOCRIT: 31.5%
  HEMOGLOBIN: 12.6 G/DL
  LEUKOCYTE COUNT: 18.97 x10E3/uL
  LYMPHOCYTE: 84%
  MEAN CORPUSCULAR HEMOGLOBIN: 24.17 pg
  MEAN CORPUSCULAR HEMOGLOBIN CONCENTRATION: 40 G/DL
  MEAN CORPUSCULAR VOLUME: 60.37 fL
  MONOCYTE: 1.67%
  NEUTROPHIL: 13.67%
  NUCLEATED RED BLOOD CELLS: 0 /100WBC
  PLATELET COUNT: 1167.67 x10E3/uL
  ALANINE AMINOTRANSFERASE: 76 u/L
  ALBUMIN: 3.8 G/DL
  ALKALINE PHOSPHATASE: 362.67 u/L
  ASPARTATE AMINOTRANSFERASE: 110.67 u/L
  BLOOD UREA NITROGEN: 16.33 mg/dL
  CARBON DIOXIDE: 26 mmol/L
  CHLORIDE: 101 MEQ/L
  CHOLESTEROL: 86.67 mg/dL
  CREATINE PHOSPHOKINASE: 941 u/L
  CREATININE: 0.15 mg/dL
  GLUCOSE: 135 mg/dL
  LACTATE DEHYDROGENASE: 452.33 u/L
  LIPASE: 12.33 u/L
  PHOSPHORUS: 12.5 mg/dL
  POTASSIUM: 5.63 MEQ/L
  SODIUM: 141.87 MEQ/L
  TOTAL BILIRUBIN: 0.2 mg/dL
  TOTAL PROTEIN: 5.4 G/DL
  URIC ACID: 1.1 mg/dL
